Results: patent US5178789A, “Liquid detergent with stabilized enzyme” (Genencor International, Inc., priority 1991, dated 1993)
Several values for one entry are separate records, joined by “and”; a condition that tells them apart may be missing. Identical values can stand only once.

Tests used:
Assay type in all cases: biochemical
subtilisin [1] = assay: Inhibition assay: subtilisin incubated with inhibitor, rate of substrate hydrolysis monitored; details: about 2 mg/ml TOM; summary of Tables I and II
Experimental: The inhibitor solution is made up in a 20 mM Mops, pH 7 buffer and added to an eppendorf. 0.8 mM subtilisin is added and the mixture is allowed to incubate at room temperature for 15 minutes. After 15 minutes, 99 μl of the mixture is added to a cuvette containing 10 μl of 100 mg/ml SAAApna. The rate of hydrolysis is monitored at […]. A subtilisin control containing no inhibitor is carried out.

subtilisin [2] = assay: Dilution assay: inhibition mixture diluted, final 1:1000, recovered subtilisin activity; details: final dilution 1:1000, 0.1M Tris pH 8.6
Experimental: The above inhibition assay is diluted 1:10 into the standard subtilisin assay buffer (0.1M Tris, pH 8.6 with 0.005% Tween). 10 μl of this diluted material is then added to a cuvette containing 10 μl of 100 mg/ml SAAPFpna and 980 μl subtilisin Assay Buffer. The rate of reaction is followed at 410 nm. The final dilution is 1:1000.

subtilisin [3] = assay: Inhibition of subtilisin by TOM in the presence of Tide Liquid, diluted 1/500; details: for % Activity Recovered Upon Dilution / Subtilisin activity, Tide 2 mg/ml TOM: 2 mg/ml TOM in Tide Liquid, diluted 1/500
Experimental: 2 mg/ml of TOM was added to Tide™ Liquid (commercially available from The Procter & Gamble Co). The solution was diluted 1/500 into the standard subtilisin 8.6 Tris buffer. 10 μl aliquots were taken at various times to monitor subtilisin activity. Similar dilutions and assay procedures were carried out with Tide™ Liquid. 100 mg/ml SAAPFpna substrate was used.

## turkey ovomucoid [TOM]
Subtilisin [1]
  active enzyme bound by inhibitor: at least 90%
Subtilisin [2]; 0.4 mg/ml TOM
  Dilution Assay % Recovered Activity: 32%
Subtilisin [2]; 2 mg/ml TOM
  Dilution Assay % Recovered Activity: 45%
Subtilisin [3]; about 2 mg/ml TOM, summary of Tables I and II
  enzyme activity recovered immediately upon appropriate dilution: > 25% and 46%
Subtilisin [3]; time 0 min
  % Activity Recovered Upon Dilution: 46%
  Subtilisin activity, Tide 2 mg/ml TOM: 1.04
Subtilisin [3]; time 15 min
  % Activity Recovered Upon Dilution: 38%
  Subtilisin activity, Tide 2 mg/ml TOM: 0.97
Subtilisin [3]; time 30 min
  % Activity Recovered Upon Dilution: 33%
  Subtilisin activity, Tide 2 mg/ml TOM: 0.965
